Patent US20190330167A1, “ACTIVATORS OF HIV LATENCY” (priority 2016, published 2019)

Test system: HIV-1 long terminal repeat (LTR)-driven luciferase reporter gene in FlipIn.FM HEK293 cells
Assay: cells
Format: cell-based
Settings: HIV-LTR driven latent reporter; 11-point, 2-fold dilution series, highest concentration 40 μM; read-out: Latent reporter Av EC50
Protocol: FIG. 44. […] The FlipIn.FM model of HIV-1 latency was treated with JQ1 (+) and DP#14 (Compound 7) alone at 10 μM and in combination, and the HIV-1 gene expression measured 48 hrs post treatment. Error bars represent standard deviation of n=3 experiments. OPTI represents media alone, without DP#14.
FIG. 46. […] The FlipIn.FM model of HIV-1 latency was treated with PFI-1 and DP#14 alone at 10 μM and in combination, and the HIV-1 gene expression measured 48 hrs post treatment. Error bars represent standard deviation of n=3 experiments. OPTI represents media alone, without DP#14.
Explicitly, HEK293 derived FlipIn-FM and FlipIn-RV dual reporter cells each include a single stable HIV-1 long terminal repeat (LTR)-driven luciferase reporter genes, with a second complimentary non-HIV (off-target) luciferase reporter. These cell lines model post integration latency and read-through transcription by expressing a low level of HIV-1 Tat protein via a native Internal Ribosome Entry Site (IRES) found within Tat, from a chimeric cellular-tat gene cassette. FlipIn-FM and FlipIn-RV clones were chosen for low basal levels of LTR activity and high responsiveness to Tat as well as many Latency Reversing Agents (LRAs).
The dual reporter cell lines contain three stably integrated constructs that together allow for detection of novel LRAs, capable of potent and specific HIV reactivation. The FlipIn.FM line contains a proviral LTR-driven nef/CBR reporter fusion gene, allowing for detection of viral gene expression. A second CMV-driven CBG luciferase reporter allows for detection of off target drug effects, including non-specific activation and drug toxicity. The third construct contains the first coding exon of HIV-1 tat, within human Growth Hormone (hGH) as a chimeric gene, expressing HIV-1 Tat protein from an IRES mechanism that underlies the tat exon. This construct models read-through transcription and the low level of Tat protein expression that occurs during post integration latency. The counter screening reverse cell line, FlipIn.RV, contains the same three components with the Click Beetle Luciferase genes in the opposite orientation (LTR-CBG and CMV-CBR) for counter screening.
Compounds were evaluated in an 11-point titration using normal CMV-CBG/LTR-CBR reporter cell line and an 11 point reverse CMV-CBR/LTR-CBG reporter cell line.
The FlipIn cell lines were therefore designed with a dual purpose, to detect novel compounds that reactivate HIV-1 and to also screen out compounds that behaved in a largely non-specific manner. To achieve the latter, the cell lines contain an “off target” reporter gene construct, driven by the unrelated CMV-IE promoter, that allows for the detection of drug mediated off target effects including global gene activation as well as possible toxicity.
The HIV-LTR driven latent reporter gene identifies the HIV-specific activation, and the term “global reporter” is interchangeable with “off target reporter” and refers to the unrelated CMV-IE promoter driven reporter gene, which is used as a surrogate for global gene activation. […] The highest concentration tested here was 40 μM.

Structure (SMILES)	EC50 [µM]
Cc1cnc(NC(=O)CCCOc2ccc(Cl)c(C)c2)s1 [Compound 1]	4.88

Same assay, conditions: Human immunodeficiency virus 1, HEK293, HIV-LTR driven latent reporter; 11-point, 2-fold dilution series, highest concentration 40 μM; read-out: Latent reporter Av EC50

Structure (SMILES)	EC50 [µM]
Cc1cnc(NC(=O)CCCCc2ccccc2)s1 [Compound 4]	9.26
N#Cc1cnc(NC(=O)CCCOc2ccccc2)s1 [Compound 5]	3.48
CCc1cnc(NC(=O)CCCOc2ccccc2)s1 [Compound 6]	1.09
O=C(CCCOc1ccccc1)Nc1ncc(Cl)s1 [Compound 8]	1.99
Cc1cnc(NC(=O)CCCOc2ccc(Cl)c(Cl)c2)s1 [Compound 12]	3.22
Cc1cnc(NC(=O)CCCOc2ccc(Br)c(Cl)c2)s1 [Compound 14]	3.09
O=C(CCCOc1ccc(Br)c(Cl)c1)Nc1ncc(Br)s1 [Compound 15]	2.56
O=C(CCCOc1ccc(Cl)c(Cl)c1)Nc1ncc(Br)s1 [Compound 16]	1.23
Cc1cc(OCCCC(=O)Nc2ncc(Br)s2)ccc1Cl [Compound 17]	2.83
O=C(CCCOc1ccc(Br)c(Cl)c1)Nc1ncc(Cl)s1 [Compound 18]	2.83
O=C(CCCOc1ccc(Cl)c(Cl)c1)Nc1ncc(Cl)s1 [Compound 19]	1.48
Cc1cc(OCCCC(=O)Nc2ncc(Cl)s2)ccc1Cl [Compound 20]	1.85
N#Cc1cnc(NC(=O)CCCOc2ccc(Br)c(Cl)c2)s1 [Compound 21]	2.12
CCc1cnc(NC(=O)CCCOc2ccc(Br)c(Cl)c2)s1 [Compound 22]	2.01
O=C(CCCOc1ccccc1)Nc1ccc(Br)cn1 [Compound 29]	7.6
O=C(CCCOc1ccccc1)Nc1ccc(C(F)(F)F)cn1 [Compound 30]	9.74
Cc1cnc(NC(=O)CCCOc2ccc(Cl)c(C)c2)s1 [Compound 36]	4.2
Cc1cnc(NC(=O)CCCOc2ccc(Cl)c(C(F)(F)F)c2)s1 [Compound 38]	5.07
O=C(CCCOc1ccccc1)Nc1ccc(Cl)cn1 [Compound 40]	6.86
COc1ccccc1OCCCC(=O)Nc1ncc(C)s1 [Compound 42]	1.42
Cc1cnc(NC(=O)CCCOc2cccc(O)c2)s1 [Compound 43]	12.5
COc1cccc(OCCCC(=O)Nc2ncc(C)s2)c1 [Compound 44]	5.3
Cc1cnc(NC(=O)CCCOc2cccc([N+](=O)[O-])c2)s1 [Compound 45]	5.29
Cc1cnc(NC(=O)CCCOc2cccc(Cl)c2)s1 [Compound 46]	5.23
Cc1cnc(NC(=O)CCCOc2cccc(C(F)(F)F)c2)s1 [Compound 47]	6.55
Cc1cnc(NC(=O)CCCOc2cccc(CO)c2)s1 [Compound 48]	4.13
Cc1cnc(NC(=O)CCCOc2cccc(C=O)c2)s1 [Compound 49]	2.64
O=C(CCCOc1ccccc1)Nc1ncc(C(F)(F)F)s1 [Compound 51]	2.37

Structure (SMILES)	EC50 [µM]
CC(C)c1cnc(NC(=O)CCCOc2ccccc2)s1 [Compound 52]	3.8
Cc1cc(OCCCC(=O)Nc2ccc(Cl)cn2)ccc1Cl [Compound 54]	19.4
COc1ccc(NC(=O)CCCOc2ccc(Cl)c(C)c2)nc1 [Compound 55]	17.9
Cc1cnc(NC(=O)CCCN(C)c2ccccc2)s1 [Compound 56]	14.8
Cc1cnc(NC(=O)CCCNc2ccc(Cl)c(C)c2)s1 [Compound 57]	1.7
Cc1cnc(NC(=O)CCCNc2ccc(Cl)c(C(F)(F)F)c2)s1 [Compound 58]	2
Cc1cnc(NC(=O)CCCN(C)c2ccc(Cl)c(C)c2)s1 [Compound 59]	1.11
Cc1ccc(OCCCC(=O)Nc2ncc(Cl)s2)cc1Cl [Compound 60]	3.56
Cc1cc(OCCCC(=O)Cc2ncc(C(C)C)s2)ccc1Cl [Compound 61]	4.29
Cc1cc(OCCCC(=O)Nc2ncc(C(F)(F)F)s2)ccc1Cl [Compound 62]	4.74
Cc1cnc(NC(=O)N2CCN(c3ccc(C)c(Cl)c3)CC2)s1 [Compound 63]	0.45
Cc1cnc(NC(=O)N2CCN(c3ccc(Cl)c(Cl)c3)CC2)s1 [Compound 66]	0.58
O=C(Nc1ncc(Cl)s1)N1CCN(c2ccc(Cl)c(Cl)c2)CC1 [Compound 67]	0.27
N#Cc1cnc(NC(=O)N2CCN(c3ccc(Cl)c(Cl)c3)CC2)s1 [Compound 68]	0.52
Cc1cnc(NC(=O)N2CCN(c3ccc(Cl)c(C)c3)CC2)s1 [Compound 69]	0.34
Cc1cc(N2CCN(C(=O)Nc3ncc(Cl)s3)CC2)ccc1Cl [Compound 70]	0.21
Cc1cc(N2CCN(C(=O)Nc3ncc(C#N)s3)CC2)ccc1Cl [Compound 71]	0.88
Cc1cc(N2CCN(C(=O)Nc3ncc(Cl)s3)CC2)ncc1C#N [Compound 72]	0.25
Cc1ccc(N2CCCN(C(=O)Nc3ncc(Cl)s3)CC2)cc1Cl [Compound 74]	5.2
O=C(Nc1ncc(Cl)s1)N1CCCN(c2ccc(Cl)c(Cl)c2)CC1 [Compound 75]	5.46
Cc1cnc2[nH]c(CCCOc3ccc(C)c(Cl)c3)nc2c1 [Compound 76]	7.75
Cc1ccc(OCCCc2nc3cc(Br)cnc3[nH]2)cc1Cl [Compound 77]	3.97
Cc1ccc(N2CCC(C(=O)Nc3ncc(Cl)s3)CC2)cc1Cl [Compound 78]	11.4
Cc1ccc(N2CCC(C(=O)Nc3ncc(C#N)s3)CC2)cc1Cl [Compound 79]	3.83
Cc1cnc(NC(=O)N2CCC(Nc3ccc(Cl)c(C)c3)C2)s1 (centres unmarked) [Compound 80]	10.1
Cc1cc(NC2CCN(C(=O)Nc3ncc(Cl)s3)C2)ccc1Cl (centres unmarked) [Compound 81]	1.5
Cc1cc(OCCC(=O)Nc2ncc(Cl)s2)ccc1Cl [Compound 83]	2.2
